# Data from US20110166191A1, “3-(2-amino-ethyl)-5-(3-cyclohexyl-propylidene)-thiazolidine-2,4-dione and its derivatives as multiple signaling pathway inhibitors and for the treatment of cancer” (priority 2010, published 2011).
# Tests used:
# A549/ATCC = experiment: NCI 60 cell line panel screening; assay type: cell-based; conditions: Homo sapiens, Non-Small Cell Lung Cancer, read-out: Growth Inhibition (GI50)
# Text: (§1) Compound 3-(2-aminoethyl)-5-(3-cyclohexylpropylidene)thiazolidine-2,4-dione was screened at five concentrations in National Cancer Institute (NCI) 60-cell line panel according to NCI's protocol for growth inhibition.
# BT-549 = experiment: NCI 60 cell line panel screening; assay type: cell-based; conditions: Homo sapiens, Breast Cancer, read-out: Growth Inhibition (GI50)
# Text: as §1
# CCRF-CEM = experiment: NCI 60 cell line panel screening; assay type: cell-based; conditions: Homo sapiens, Leukemia, read-out: Growth Inhibition (GI50)
# Text: as §1
# DU-145 = experiment: NCI 60 cell line panel screening; assay type: cell-based; conditions: Homo sapiens, Prostate Cancer, read-out: Growth Inhibition (GI50)
# Text: as §1
# HS 578T = experiment: NCI 60 cell line panel screening; assay type: cell-based; conditions: Homo sapiens, Breast Cancer, read-out: Growth Inhibition (GI50)
# Text: as §1
# HT29 = experiment: NCI 60 cell line panel screening; assay type: cell-based; conditions: Homo sapiens, HT-29, Colon Cancer, read-out: Growth Inhibition (GI50)
# Text: as §1
# K-562 = experiment: NCI 60 cell line panel screening; assay type: cell-based; conditions: Homo sapiens, K562, Leukemia, read-out: Growth Inhibition (GI50)
# Text: as §1
# M14 = experiment: NCI 60 cell line panel screening; assay type: cell-based; conditions: Homo sapiens, Melanoma, read-out: Growth Inhibition (GI50)
# Text: as §1
# MALME-3M = experiment: NCI 60 cell line panel screening; assay type: cell-based; conditions: Homo sapiens, Melanoma, read-out: Growth Inhibition (GI50)
# Text: as §1
# MCF7 = experiment: NCI 60 cell line panel screening; assay type: cell-based; conditions: Homo sapiens, Breast Cancer, read-out: Growth Inhibition (GI50)
# Text: as §1
# MDA-MB-231/ATCC = experiment: NCI 60 cell line panel screening; assay type: cell-based; conditions: Homo sapiens, Breast Cancer, read-out: Growth Inhibition (GI50)
# Text: as §1
# MOLT-4 = experiment: NCI 60 cell line panel screening; assay type: cell-based; conditions: Homo sapiens, Leukemia, read-out: Growth Inhibition (GI50)
# Text: as §1
# NCI-522 = experiment: NCI 60 cell line panel screening; assay type: cell-based; conditions: Non-Small Cell Lung Cancer, read-out: Growth Inhibition (GI50)
# Text: as §1
# NCI-H322M = experiment: NCI 60 cell line panel screening; assay type: cell-based; conditions: Homo sapiens, Non-Small Cell Lung Cancer, read-out: Growth Inhibition (GI50)
# Text: as §1
# NCI-H460 = experiment: NCI 60 cell line panel screening; assay type: cell-based; conditions: Homo sapiens, Non-Small Cell Lung Cancer, read-out: Growth Inhibition (GI50)
# Text: as §1
# OVCAR-3 = experiment: NCI 60 cell line panel screening; assay type: cell-based; conditions: Homo sapiens, Ovarian Cancer, read-out: Growth Inhibition (GI50)
# Text: as §1
# OVCAR-5 = experiment: NCI 60 cell line panel screening; assay type: cell-based; conditions: Homo sapiens, Ovarian Cancer, read-out: Growth Inhibition (GI50)
# Text: as §1
# OVCAR-8 = experiment: NCI 60 cell line panel screening; assay type: cell-based; conditions: Homo sapiens, Ovarian Cancer, read-out: Growth Inhibition (GI50)
# Text: as §1
# PC-3 = experiment: NCI 60 cell line panel screening; assay type: cell-based; conditions: Homo sapiens, Prostate Cancer, read-out: Growth Inhibition (GI50)
# Text: as §1
# RPMI-8226 = experiment: NCI 60 cell line panel screening; assay type: cell-based; conditions: Homo sapiens, Leukemia, read-out: Growth Inhibition (GI50)
# Text: as §1
# SF-295 = experiment: NCI 60 cell line panel screening; assay type: cell-based; conditions: Homo sapiens, CNS Cancer, read-out: Growth Inhibition (GI50)
# Text: as §1
# SNB-19 = experiment: NCI 60 cell line panel screening; assay type: cell-based; conditions: Homo sapiens, CNS Cancer, read-out: Growth Inhibition (GI50)
# Text: as §1
# TK-10 = experiment: NCI 60 cell line panel screening; assay type: cell-based; conditions: Homo sapiens, Renal Cancer, read-out: Growth Inhibition (GI50)
# Text: as §1
# U251 = experiment: NCI 60 cell line panel screening; assay type: cell-based; conditions: Homo sapiens, U-251, CNS Cancer, read-out: Growth Inhibition (GI50)
# Text: as §1
# UACC-257 = experiment: NCI 60 cell line panel screening; assay type: cell-based; conditions: Homo sapiens, Melanoma, read-out: Growth Inhibition (GI50)
# Text: as §1
# UO-31 = experiment: NCI 60 cell line panel screening; assay type: cell-based; conditions: Homo sapiens, Renal Cancer, read-out: Growth Inhibition (GI50)
# Text: as §1
# U937 cells = experiment: Cell cycle analysis (PI flow cytometry); assay type: cell-based; conditions: 24 h
# Experimental: FIG. 3. Effects of Formula II and Formula III on U937 cell cycle. Cells were treated with compounds prepared as described in Examples 4 and 8 [i.e. 3-(2-aminoethyl)-5-(3-cyclohexylpropylidene)thiazolidine-2,4-dione and 3-(2-aminoethyl)-5-(3-phenyl-propylidene)-thiazolidine-2,4-dione, respectfully] for 24 hrs, then cells were stained with PI and analyzed by flow cytometry.
# After treatment of cells with test compound of varying concentrations for 24 hrs, cells were pelleted at 4° C., resuspended, fixed at 4° C. with 67% ethanol overnight, and treated on ice with a PI solution containing 3.8 mM Na citrate, 0.5 mg/mL RNase A (Sigma Chemical Co.), and 0.01 mg/mL PI (Sigma) for 3 hrs. Cell cycle analysis was performed by flow cytometry using Verity Winlist software (Topsham, Me.).
# B16F10 melanoma cells = experiment: Reduction of murine B16F10 melanoma lung nodules in mice; assay type: in vivo, B6C3F1 mice; conditions: 20 mg/kg daily gavage
# Experimental: FIG. 5. […] Female B6C3F1 mice (10-11/group) were injected with 2×10^5 B16F10 melanoma cells (i.v.), and treatment with 20 mg/kg dose daily (gavage) was started one day before the tumor cell injection and stopped at day 15 after tumor injection. Mice were sacrificed at day 18 and lungs were removed for counting and observation.
# Female B6C3F1 mice (10-11/group) were injected with 2×10^5 B16F10 melanoma cells (i.v.), and treatment with the compound produced as described in Example 4i.e. 3-(2-aminoethyl)-5-(3-cyclohexylpropylidene)thiazolidine-2,4-dione, 20 mg/kg dosage daily (gavage) was started one day before the tumor cell injection and stopped at day 15 after tumor injection. Mice were sacrificed at day 18 and lungs were removed for counting and observation.
# Toxicity studies in mice = assay type: in vivo; conditions: B6C3F1 mice, orally 30 mg/kg, 50 mg/kg and 80 mg/kg, 21 days
# Experimental: Female B6C3F1 mice (12/group) were given example 4 orally at 30 mg/kg, 50 mg/kg and 80 mg/kg dosage or example 820 mg/kg orally for 21 days.
compound,measurement,setting,value
"NCCN1C(=O)S/C(=C\CCC2CCCCC2)C1=O [Example 4, 3-(2-aminoethyl)-5-(3-cyclohexylpropylidene)thiazolidine-2,4-dione]",GI50,A549/ATCC,2.5 µM
same,GI50,BT-549,2.05 µM
same,GI50,CCRF-CEM,2.5 µM
same,GI50,DU-145,1.76 µM
same,GI50,HS 578T,2.49 µM
same,GI50,HT29,2.04 µM
same,GI50,K-562,2.59 µM
same,GI50,M14,1.68 µM
same,GI50,MALME-3M,1.8 µM
same,GI50,MCF7,3.13 µM
same,GI50,MDA-MB-231/ATCC,2.08 µM
same,GI50,MOLT-4,2.38 µM
same,GI50,NCI-522,1.4 µM
same,GI50,NCI-H322M,5.1 µM
same,GI50,NCI-H460,1.95 µM
same,GI50,OVCAR-3,1.89 µM
same,GI50,OVCAR-5,1.98 µM
same,GI50,OVCAR-8,1.89 µM
same,GI50,PC-3,1.91 µM
same,GI50,RPMI-8226,2.51 µM
same,GI50,SF-295,1.73 µM
same,GI50,SNB-19,4.46 µM
same,GI50,TK-10,2.01 µM
same,GI50,U251,1.72 µM
same,GI50,UACC-257,1.69 µM
same,GI50,UO-31,1.56 µM
same,effect on cell cycle,U937 cells,arrested U937 cells at G2/M phase
same,lung tumor nodules,"B16F10 melanoma cells; B6C3F1 mice, B16F10 melanoma cells i.v., lungs at day 18",decreased the lung tumor nodules
same,oral bioavailability (in words),B16F10 melanoma cells; mice,orally bioavailable
same,effects on general health and body weight,Toxicity studies in mice,no effects on general health and body weight were observed
